Results published in US20240308960A1 (Sumitomo Pharma Co., Ltd., priority 2021, published 2024).

Biological target: T1, Human orexin receptor type 2 (Homo sapiens, UniProt O43614)
T1 sequence (O43614 1-444): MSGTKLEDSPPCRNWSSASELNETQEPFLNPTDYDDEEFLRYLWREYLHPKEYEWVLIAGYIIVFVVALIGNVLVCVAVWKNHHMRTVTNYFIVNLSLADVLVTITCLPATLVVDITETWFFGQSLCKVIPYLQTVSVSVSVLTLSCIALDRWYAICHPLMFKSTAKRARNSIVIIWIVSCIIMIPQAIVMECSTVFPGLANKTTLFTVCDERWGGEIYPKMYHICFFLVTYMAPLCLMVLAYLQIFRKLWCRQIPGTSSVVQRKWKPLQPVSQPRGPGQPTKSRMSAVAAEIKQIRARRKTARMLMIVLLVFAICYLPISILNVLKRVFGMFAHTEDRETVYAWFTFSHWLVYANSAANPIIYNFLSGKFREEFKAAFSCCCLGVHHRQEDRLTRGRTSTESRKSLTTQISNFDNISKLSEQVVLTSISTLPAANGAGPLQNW
Assay: Test Example 1: agonist activity for orexin receptor type 2 (aequorin luminescence, intracellular calcium mobilization)
Details: compound 10 μm; CHO cells transiently expressing human orexin receptor type 2 and apoaequorin; relative percentage of luminescence for the luminescence (100%) of Orexin A (100 μM)

Agonist Activity (%)	SMILES
183%	CC(C)[C@H]1CO[C@H](c2cccc(Cl)c2NC(=O)N2CCC(C)(c3noc(C4CC4)n3)CC2)CN1 (racemic) [Example 167, Rac-N-{2-chloro-6-[(2R,5S)-5-(propan-2-yl)morpholin-2-yl]phenyl}-4-(5-cyclopropyl-1,2,4-oxadiazol-13-yl)-4-methylpiperidine-1-carboxamide]
196%	Cc1ncc(C2(C)CCN(C(=O)Nc3c(Cl)cccc3N3CCN(C(C)C)CC3)CC2)o1 [Example 92, N-{2-chloro-6-[4-(propan-2-yl)piperazin-1-yl]phenyl}-4-methyl-4-(2-methyl-1,3-oxazol-5-yl)piperidine-1-carboxamide]
71%	Cc1ccc(C2CCN(C(=O)Nc3c(F)cccc3-c3cnn(C4CC4)c3)CC2)cc1 [Example 58, N-[2-(1-cyclopropyl-1H-pyrazol-4-yl)-6-fluoro-phenyl]-4-(4-methylphenyl)piperidine-1-carboxamide]
109%	CC(CF)N1CCC(c2cccc(Cl)c2NC(=O)N2CCC(C)(c3noc(C4CC4)n3)CC2)CC1 (centres unmarked) [Example 143, N-{2-chloro-6-[1-(1-fluoropropan-2-yl)piperidin-4-yl]phenyl}-4-(5-cyclopropyl-1,2,4-oxadiazol-3-yl)-4-methylpiperidine-1-carboxamide]
97%	Cc1ccc(C2CCN(C(=O)Nc3c(F)cccc3N3C[C@H]4C[C@@H]3CN4C(C)C)CC2)cc1 [Example 151, N-{2-fluoro-6-[(1R,4R)-5-(propan-2-yl)-2,5-diazabicyclo[2.2.1]heptan-2-yl]phenyl}-4-(4-methylphenyl)piperidine-1-carboxamide]
155%	CC(C)N1CCN(c2cccc(Cl)c2NC(=O)N2CCC(C)(c3noc(C4CC4(F)F)n3)CC2)CC1 (centres unmarked) [Example 114, N-{2-chloro-6-[4-(propan-2-yl)piperazin-1-yl]phenyl}-4-[5-(2,2-difluorocyclopropyl)-1,2,4-oxadiazol-3-yl]-4-methylpiperidine-1-carboxamide]
102%	CC(C)c1ccc(-c2cccc(F)c2NC(=O)N2CCC(C)(c3noc(C4CC4)n3)CC2)cn1 [Example 60, 4-(5-cyclopropyl-1,2,4-oxadiazol-3-yl)-N-{2-fluoro-6-[6-(propan-2-yl)pyridin-3-yl]phenyl}-4-methylpiperidine-1-carboxamide]
157%	CC(C)N1CCN(c2cccc(Cl)c2NC(=O)N2CCC(C)(c3noc(C4(C)CC4)n3)CC2)CC1 [Example 80, N-{2-chloro-6-[4-(propan-2-yl)piperazin-1-yl]phenyl}-4-methyl-4-[5-(1-methylcyclopropyl)-1,2,4-oxadiazol-3-yl]piperidine-1-carboxamide]
160%	CC1(c2noc(C3CC3)n2)CCN(C(=O)Nc2c(Cl)cccc2N2CCN(C(C)(C)C)CC2)CC1 [Example 100, N-[2-(4-tert-butylpiperazin-1-yl)-6-chlorophenyl]-4-(5-cyclopropyl-1,2,4-oxadiazol-3-yl)-4-methylpiperidine-1-carboxamide]
141%	CC(C)N1CC(Oc2cccc(Cl)c2NC(=O)N2CCC(C)(c3noc(C4CC4)n3)CC2)C1 [Example 160, N-(2-chloro-6-{[1-(propan-2-yl)azetidin-3-yl]oxy}phenyl)-4-(5-cyclopropyl-1,2,4-oxadiazol-3-yl)-4-methylpiperidine-1-carboxamide]
158%	Cc1ccc(C2(C)CCN(C(=O)Nc3c(Cl)cccc3N3CCN(C(C)C)CC3)CC2)cc1 [Example 77, N-{2-chloro-6-[4-(propan-2-yl)piperazin-1-yl]phenyl}-4-methyl-4-(4-methylphenyl)piperidine-1-carboxamide]

Second part, the compound before the results:

SMILES	Agonist Activity (%)
CC(C)N1CC=C(c2cccc(Cl)c2NC(=O)N2CCC(C)(c3noc(C4CC4)n3)CC2)CC1 [Example 130, N-{2-chloro-6-[1-(propan-2-yl)-1,2,3,6-tetrahydropyridin-4-yl]phenyl}-4-(5-cyclopropyl-1,2,4-oxadiazol-3-yl)-4-methylpiperidine-1-carboxamide]	142%
Cc1ccc(C2CCN(C(=O)Nc3c(C)cccc3N3CCN(C(C)C)CC3)CC2)cc1 [Example 17, 4-(4-methylphenyl)-N-{2-methyl-6-[4-(propan-2-yl)piperazin-1-yl]phenyl}piperidine-1-carboxamide]	133%
CC(C)N1CCC(c2cccc(F)c2NC(=O)N2CCC(c3cc(C4CC4)on3)CC2)CC1 [Example 51, 4-(5-cyclopropyl-1,2-oxazol-3-yl)-N-{2-fluoro-6-[1-(propan-2-yl)piperidin-4-yl]phenyl}piperidine-1-carboxamide]	151%
Cc1ccc(C2CCN(C(=O)Nc3ccccc3C3CCN(C(C)C)CC3)CC2)cc1.Cl [Example 31, 4-(4-methylphenyl)-N-{2-[1-(propan-2-yl)piperidin-4-yl]phenyl}piperidine-1-carboxamide hydrochloride]	164%
CC(C)N1CC=C(c2cccc(F)c2NC(=O)N2CCC(C)(c3nc4ccccc4o3)CC2)CC1 [Example 50, 4-(1,3-benzoxazol-2-yl)-N-{2-fluoro-6-[1-(propan-2-yl)-1,2,3,6-tetrahydropyridin-4-yl]phenyl}-4-methylpiperidine-1-carboxamide]	187%
CC(CF)N1CC=C(c2cccc(Cl)c2NC(=O)N2CCC(C)(c3cc(C4CC4)on3)CC2)CC1 (centres unmarked) [Example 141, N-{2-chloro-6-[1-(1-fluoropropan-2-yl)-1,2,3,6-tetrahydropyridin-4-yl]phenyl}-4-(5-cyclopropyl-1,2-oxazol-3-yl)-4-methylpiperidine-1-carboxamide]	121%
Cc1onc(C2(C)CCN(C(=O)Nc3c(Cl)cccc3N3CCN(C(C)C)CC3)CC2)c1Cl [Example 90, 4-(4-chloro-5-methyl-1,2-oxazol-3-yl)-N-{2-chloro-6-[4-(propan-2-yl)piperazin-1-yl]phenyl}-4-methylpiperidine-1-carboxamide]	164%
Cc1ccc(C2CCN(C(=O)Nc3c(F)cccc3C3CCN(C(C)C)CC3)CC2)cc1 [Example 39, N-{2-fluoro-6-[1-(propan-2-yl)piperidin-4-yl]phenyl}-4-(4-methylphenyl)piperidine-1-carboxamide]	106%
Cc1ccc(C2CCN(C(=O)Nc3ccccc3[C@@H]3CN[C@@H](C(C)C)CO3)CC2)cc1 [Example 166, 4-(4-Methylphenyl)-N-{2-[(2R,5S)-5-(propan-2-yl)morpholin-2-yl]phenyl}piperidine-1-carboxamide]	72%
Cc1ccc(C2CCN(C(=O)Nc3ccccc3N3CCN(C)CC3)CC2)cc1 [Example 123, 4-(4-methylphenyl)-N-[2-(4-methylpiperazin-1-yl)phenyl]piperidine-1-carboxamide]	105%
CCN1CCN(c2ccccc2NC(=O)N2CCC(C)(c3ccccc3)CC2)CC1.Cl [Example 4, N-[2-(4-ethylpiperazin-1-yl)phenyl]-4-methyl-4-phenylpiperidine-1-carboxamide hydrochloride]	125%
CC(C)N1CC=C(c2cccc(Cl)c2NC(=O)N2CCC(C)(c3cc(C4CC4)on3)CC2)CC1 [Example 144, N-{2-chloro-6-[1-(propan-2-yl)-1,2,3,6-tetrahydropyridin-4-yl]phenyl}-4-(5-cyclopropyl-1,2-oxazol-3-yl)-4-methylpiperidine-1-carboxamide]	143%
CC(C)c1ncc(C2(C)CCN(C(=O)Nc3c(Cl)cccc3N3CCN(C(C)C)CC3)CC2)o1 [Example 93, N-{2-chloro-6-[4-(propan-2-yl)piperazin-1-yl]phenyl}-4-methyl-4-[2-(propan-2-yl)-1,3-oxazol-5-yl]piperidine-1-carboxamide]	203%
Cc1ccc(C2CCN(C(=O)Nc3c(F)cccc3C3=CCN(C(C)C)CC3)CC2)cc1 [Example 42, N-{2-fluoro-6-[1-(propan-2-yl)-1,2,3,6-tetrahydropyridin-4-yl]phenyl}-4-(4-methylphenyl)piperidine-1-carboxamide]	128%
CC(C)c1ccc(-c2cccc(Cl)c2NC(=O)N2CCC(C)(c3cc(C4CC4)on3)CC2)cn1 [Example 69, N-{2-chloro-6-[6-(propan-2-yl)pyridin-3-yl]phenyl}-4-(5-cyclopropyl-1,2-oxazol-3-yl)-4-methylpiperidine-1-carboxamide]	129%
Cc1ccc(C2CCN(C(=O)Nc3c(F)cccc3C3CCN(C(C)CF)CC3)CC2)cc1 (centres unmarked) [Example 137, N-{2-fluoro-6-[1-(1-fluoropropan-2-yl)piperidin-4-yl]phenyl}-4-(4-methylphenyl)piperidine-1-carboxamide]	126%
CC(C)N1CCN(c2cccc(F)c2NC(=O)N2CCC(c3cc(C4CC4)on3)CC2)CC1 [Example 52, 4-(5-cyclopropyl-1,2-oxazol-3-yl)-N-{2-fluoro-6-[4-(propan-2-yl)piperazin-1-yl]phenyl}piperidine-1-carboxamide]	155%
Cc1ccc(C2(C)CCN(C(=O)Nc3c(Cl)cccc3C3=CCN(C(C)C)CC3)CC2)cc1 [Example 147, N-{2-chloro-6-[1-(propan-2-yl)-1,2,3,6-tetrahydropyridin-4-yl]phenyl}-4-methyl-4-(4-methylphenyl)piperidine-1-carboxamide]	167%
